Assay results published in EP2732821A1, “Amphoteric polyamidoamines in the treatment of malaria” (Universita' Degli Studi Di Milano, priority 2012, dated 2014).
Like-named read-outs stand apart in the source and are kept apart here.

Legend:
[1] = test system: P. falciparum 3D7 cultures; assay: microbe, parasite or virus in culture; details: Plasmodium falciparum, 3D7, 48 h
Description: Parasitemia of P. falciparum 3D7 cultures was adjusted to 1.5% with more than 90% of parasites at ring stage after sorbitol synchronization. 98 µL of this Plasmodium culture was plated in 96-well plates and incubated in the presence of phosphate-buffered saline (PBS) solutions of the free drugs or of polymer/drug conjugates (ISA 23-PQ obtained in Example3; AGMA1-PQ obtained in Example 4,; ISA 23-CQ obtained in Example 3; AGMA1-CQ obtained in Example 4) for 48 h at 37°C under a gas mixture of 92% N2, 5% CO2, and 3% O2. Parasitemia was determined by microscopic counting of blood smears, or by FACS. Table 2. Effect of free primaquine, ISA23-PQ and AGMA1-PQ on the growth of P. falciparum. The polymers were added to P. falciparum cultures at the ring stage, and incubated for 48 h before determining parasitemia.

[2] = test system: P. yoelii XL-infected mice; details: for % parasitemia: day 4
Description: Briefly, mice were inoculated 2 × 10^6 red blood cells from P. yoelii XL-infected mice by intraperitoneal (ip) injection. […] Tested compounds were prepared at appropriate doses in PBS. The control groups received PBS (n=3). The parasitemia was monitored daily by microscopic examination of Wright's-stained thin-blood smears. Activity was calculated by microscopic counting of blood smears from day 4.

P. yoelii-infected mice = details: oral, 100 mg kg^-1; cited from earlier work
P. berghei-infected mice = details: single intravenous dose of 1 mg kg^-1, free drug; cited from earlier work

CCN(CC)CCCC(C)Nc1ccnc2cc(Cl)ccc12 (centres unmarked) [CQ soluble, chloroquine]
inhibition at 0.0026 µg/mL [1]: 8.9%
inhibition at 0.00515 µg/mL [1]: 22.6%
inhibition at 0.0103 µg/mL [1]: 72.9%
inhibition at 0.0206 µg/mL [1]: 82.1%
inhibition at 0.0414 µg/mL [1]: 85.9%
inhibition at 0.0824 µg/mL [1]: 86.4%
% parasitemia ([2]; chloroquine 1 mg/kg per day ip for 4 days): 37.7%
% parasitemia ([2]; chloroquine 2.5 mg/kg): 20.1%
elimination of parasitemia and cure of the animals ([2]; intraperitoneal 4 × 1 mg kg^-1 doses of CQ, free CQ at the same or even a larger amount): unable to eliminate parasitemia or cure the animals

COc1cc(NC(C)CCCN)c2ncccc2c1 (centres unmarked) [PQ soluble, primaquine]
inhibition at 0.44 µg/mL [1]: 6.9%
inhibition at 0.88 µg/mL [1]: 40.9%
inhibition at 1.76 µg/mL [1]: 53.9%
inhibition at 3.52 µg/mL [1]: 80.3%
inhibition at 7.04 µg/mL [1]: 86.6%
inhibition at 14.1 µg/mL [1]: 88.2%

COc1cc(/C=C/C(=O)CC(=O)/C=C/c2ccc(O)c(OC)c2)ccc1O [curcumin]
animals cured (P. yoelii-infected mice): one third

CCCCN(CCCC)CCC(O)c1cc2c(Cl)cc(Cl)cc2c2cc(C(F)(F)F)ccc12 (centres unmarked) [halofantrine]
arrest of infection and survival (P. berghei-infected mice): unable to arrest the infection or to prolong the survival of the animals
